Tested on: adult patients under general anesthetic in noncardiac surgery
Type: in vivo, human
Protocol: The study covered 1,534 patients having received perioperative hemodynamic optimization with use of noradrenaline (in the form of noradrenaline tartrate) to maintain blood pressure under general anesthetic in noncardiac surgery in adults.
The hemodynamic surveillance is performed non-invasively as blood pressure is taken automatically every 2 minutes when inducing anesthesia, then every 5 minutes during the hemodynamic stability period.
Administration of noradrenaline in continuous perfusion with the solution titered at 10 μg/mL.
This solution is injected: • firstly as a continuous perfusion, in an automatic syringe pump, whose speed will be modulated as a function of the weight, age, and initial “blood pressure state” of the patient (notion of treated or untreated hypertension), of the presence or absence of epidural anesthesia combined with general anesthesia. • secondly as an isolated perfusion to prevent causing a bolus of NA during the injection of another drug in the perfusion tubing. This isolated perfusion is branched either on an extra venous catheter independent of the venous access used for the anesthetic, or on a multi-lumen catheter of a central venous path, or on a three-way tap located between the peripheral venous catheter and the end of the perfusion tubing.
The recommended dosages are 0.02 to 0.08 μg/kg/min of noradrenaline.
The suitable dosage is that which delivers blood pressure similar, within a limit of 20% of the preoperative blood pressure of the patient, and systolic blood pressure >100 mmHg
For general anesthetic, noradrenaline administration by continuous perfusion with the solution titered at 10 μg/mL must be started 3 to 4 minutes before inducing anesthesia to prevent hypotension caused by the anesthetic.
The patient is weaned off noradrenaline during the emergence phase by progressively reducing noradrenaline administration dosages as a function of how well the patient is returning to the preoperative blood pressure.
The study covered 1,534 patients 15 to 102 years old (average age 56 years old), with average weight 72 kg (extremes from 33 to 163 kg), mean preoperative blood pressure 138 mmHg (from 95 to 200 mmHg).
The induction procedure for general anesthetic is the same for all the patients: the patients receive 0.2 μg/kg of sufentanil, after 3 minutes 1.5 to 3 mg/kg propofol, then 0.15 mg/kg of cisatracurium.
The patients are intubated 3 minutes after the curare injection and ventilated with 8 mL/kg of theoretical weight.
Anesthesia is maintained using sevoflurane. The perioperative analgesia is handled by continuous injection of remifentanil and/or by iterative injection of sufentanil.
A continuous perfusion of noradrenaline in solution at 10 μg/mL of noradrenaline is administered 4 minutes before inducing anesthesia.
The dosages used are generally comprised between 0.02 and 0.08 μg/kg/min.
The patient is weaned off the continuous perfusion of the noradrenaline solution at 10 μg/mL in the emergence phase by progressively reducing the noradrenaline administration dosages as a function of how well the patient is returning to the preoperative blood pressure.
Clinically: non-invasive blood pressure surveillance is performed every 2 minutes when inducing anesthesia, then every 5 minutes during the hemodynamic stability period.
The quality of the perioperative hemostasis was always noted.
The following elements are systematically monitored and noted in the first 24 hours postoperative: agitation when waking, postoperative nausea and/or vomiting (PONY).
Biologically: troponin was assayed at D1 in 26.0% of patients judged to be at risk: 99.87% were at zero, one patient has a troponine assay at 0.04 and one patient at 0.05 μg/mL (significance threshold is 0.4 μg/mL). These patients were controlled again and their level had normalized at D2.
Urea and creatinine assay on D0 and D1 performed on 26.0% of the patients judged to be at higher risk. […]

[1] = general anesthetic combined with epidural anesthetic

cases of superficial venous thromboses detected (human, in vivo): five | hypertension needing nicardipine 1 mg bolus as last resort (human, in vivo): 26 cases | other undesirable effects (human, in vivo): No other undesirable effect | patients with troponin at zero (human, in vivo): 99.87% | perioperative urine flows (human, in vivo): net increase | postoperative vomiting (human, in vivo): none of the patients | renal function (urea and creatinine assay) (human, in vivo): no changes to renal function | postoperative nausea (human, in vivo, 24 h): 1.2% | distal peripheral venous thrombosis complications (human, in vivo, 4 day): 0.32%
SMILES: NC[C@H](O)c1ccc(O)c(O)c1 [noradrenaline, 4-[(1R)-2-amino-1-hydroxyethyl]benzene-1,2-diol]
effect on blood pressure (continuous injection): immediate, brief, but without tachyphylaxis, long-lasting in continuous injection, rapidly reversible | perioperative blood pressure control (five elderly patients with aortal stenosis and hip fracture, general anesthesia): controlled perioperative blood pressure during general anesthesia without cardiac incidents | duration of blood pressure control [1]: up to 400 min | tachyphylaxis and vascular filling during prolonged blood pressure control [1]: without tachyphylaxis and without excess vascular filling | blood pressure control (hemodialyzed patients with renal failure, 0.05 to 0.08 μg/kg/min): blood pressure could be controlled | urea and creatinine postoperative value (human, in vivo): reduction of their postoperative value at D1 | lucidity at emergence and absence of agitation (independent of duration of intervention and patient age): noted in all patients | health risk and surgical outcomes (patients over 80 years old (8.5%)): the health risk was controlled and surgical outcomes were simple | quality of emergence (young patients without history, 0.02 μg/kg/h): better lucidity and quasi-disappearance of postoperative nausea and vomiting

Reference: patent US20130123298A1, “PHARMACEUTICAL COMPOSITION FOR THE PREVENTION OF PERIOPERATIVE ARTERIAL HYPOTENSION IN HUMANS” (LABORATOIRE AGUETTANT, priority 2010, published 2013)
